Measured values published in patent US20250381176A1, “SCD1 INHIBITORS FOR TREATING LIVER DISEASE” (MODULATION THERAPEUTICS, INC., priority 2022, published 2025).
Entries after “also recorded” stand apart in the source; their conditions may differ.

Tests used:
[1] = meta-analysis, off-label use; cited from earlier work
SCD1 mRNA = details: cited from earlier work
SCD1 = biological target: T1, SCD1 (Homo sapiens, UniProt O00767); experiment: SCD1 enzyme inhibition (conversion of 13C18-stearoyl CoA to 13C18-oleoyl, LC-MS/MS, liver microsomes); type: biochemical
T1 construct: conversion of ^13C18-stearoyl CoA to ^13C18-oleoyl using LC-MS/MS in liver microsomes; from tissue; host or cells: liver microsomes
T1 sequence (O00767 1-359): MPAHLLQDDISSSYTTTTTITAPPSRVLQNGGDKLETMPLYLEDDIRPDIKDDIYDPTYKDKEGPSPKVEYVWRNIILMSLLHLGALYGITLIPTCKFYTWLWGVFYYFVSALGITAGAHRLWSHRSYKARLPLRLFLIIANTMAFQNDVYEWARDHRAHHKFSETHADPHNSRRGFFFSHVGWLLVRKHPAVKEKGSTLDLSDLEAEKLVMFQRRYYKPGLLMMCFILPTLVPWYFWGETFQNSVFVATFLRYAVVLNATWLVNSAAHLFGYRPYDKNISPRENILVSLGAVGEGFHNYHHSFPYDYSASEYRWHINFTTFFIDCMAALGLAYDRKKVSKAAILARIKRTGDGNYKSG

[2] = Oral PK in rats (Table 1); type: in vivo; details: plasma, Sprague Dawley rat, 12.5 mg/kg oral gavage
[3] = Oral PK in mice (Table 1); type: in vivo; details: mouse, plasma, C57BL/6 mice, 10 mg/kg oral gavage
Experimental: Serum chemistry and histochemical analysis is done for both the Western Diet and MCD mouse models. Body weight and Echo-MRI is used to determine lean muscle, fat, and water content of the mice. At the end of the study, the animals are fasted overnight, and blood samples are collected for serum chemistry. A full panel of liver and metabolite biomarkers are assessed. This standard panel includes triglycerides and total cholesterol, triglycerides (TG), ALP, ALT, AST, Creatinine kinase, amylase, lipase, total bilirubin, LDH, as well as calcium, bicarbonate, potassium and sodium. Liver function tests from this panel include Aspartate aminotransferase level (AST), Alanine aminotransferase level […], GGT, Apolipoprotein, Glucose levels, and Alkaline Phosphatase (ALP), Proc-3, GAL-3, YKL-40, CK-18 and Caspase cleaved (MN-65, MN-30). Additionally, insulin, leptin and adiponectin levels are assessed as part of validation of models.
Compound 1 quantification from mouse plasma is performed using LC-MS/MS on ExionLC system equipped with Kinetex XB-C18, 2.1×50 mm (Phenomenex 00B-4496-AN) column coupled with AB Sciex 5500 QTrap instrument (equipped with TurboIonspray ionization source and Analyst software), with Acetonitrile/water/0.1% v/v formic acid as mobile phase. Blood samples collected are centrifuged at 1300 g, 2-8° C., ≥10 minutes and the collected plasma are stored either on ice (less than 1 hour) or at −80° C. until further processing. Predetermined quantities of plasma are vortexed with ice-cold acetonitrile to precipitate the protein content and centrifuged at 1300 g, 2-8° C., ≥10 minutes. Supernatant is taken in a labelled vial and evaporated at 40° C. under a gentle stream of nitrogen. The precipitates are reconstituted in LC-MS grade methanol and centrifuged at 1300 g, 2-8° C., ≥10 minutes. The supernatant is sampled for LC-MS/MS analysis. The concentration of Compound 1 is estimated by standard curve developed from plasma standards spiked with deuterium labeled Compound 1 as internal standard. Deuterium labeled Compound 1 is on-hand. In some embodiments, deuterium labeled Compound 1 has the following structure: […]

[4] = Non-GLP pharmacokinetic (PK) and toxicokinetic (TK) studies; type: in vivo, mice, rats and dogs
[5] = tested on: C57BL6/J male mice fed on a Western Diet; experiment: Western Diet-induced liver steatosis in mice, Compound 1 at 2 mg/kg IP for 10 days; type: in vivo
Experimental: The study was performed with C57BL6/J male mice, placed on a Western Diet for 4 months, and treated for 10 days IP with Compound 1 (2 mg/kg−N=3; *P<0.05)

[6] = Oral tolerability in male and female rats; type: in vivo
[7] = 14-day repeat oral dosing toxicity/toxicokinetics in dogs; type: in vivo
Experimental: Healthy beagles (Canis lupis familiaris) were dosed daily (oral gavage) for 14 days, and blood was collected on day 15.
A dosing regimen has been determined for Compound 1. Single dose and 7-day dosing non-GLP toxicity has been performed in rats and dogs and GLP toxicity in dogs 14 days repeat dosing. […] Dose conversion has been done via allometry based on body surface area.
These issues were attributed to atrophy of the Meibomian gland (the specialized sebaceous gland of the eyelid—see, e.g., FIG. 6). […] Mitigation the sequelae of events that occur due to dry eye is achieved by prophylactic administration of lipid eye drops and clinical eye exam every 14 days during a clinical trial.

[8] = Oral PK in dogs (Table 1); type: in vivo; details: dog, plasma, canine, 20 mg/kg oral gavage
known kinases = experiment: Off-target reactivity with kinases; type: biochemical
[9] = 4 hour, read-out: Drug in Plasma, 4 hour
[10] = 8 hour, read-out: Drug in Plasma, 8 hour
[11] = 24 hour, read-out: Drug in Plasma, 24 hour
[12] = Compound 1 alone, Western Diet mice

For `CCc1ccc(CCOc2ccc(CC3SC(=O)NC3=O)cc2)nc1` (stereo not drawn) [pioglitazone], the “efficacy in human NAFLD” value [1] is listed as “efficacious in human NAFLD”.

In the case of `CCCCCCCCCCCCCCCCCCCC(=O)N[C@H]1CC[C@@]2(C)[C@@H](C1)C[C@@H](O)[C@@H]1[C@@H]2C[C@H](O)[C@]2(C)[C@@H]([C@H](C)CCC(=O)O)CC[C@@H]12` [Aramchol], the “SCD1 mRNA expression levels” value (SCD1 mRNA) is given as “reduces expression of the mRNA for SCD1; also recorded: downregulates SCD1; also recorded: reduces SCD1 mRNA expression levels”.

For `CNC(=O)c1ccnc(NC(=O)N2CCC(Oc3ccccc3Cl)CC2)c1` [Compound 1], the “mode of SCD1 inhibition” value (SCD1) was “inhibits enzymatic activity competitively; also recorded: competitive inhibition; also recorded: reversible”, the IC50 (SCD1; 13C18-stearoyl CoA to 13C18-oleoyl, LC-MS/MS, liver microsomes, read-out: IC50 for blocking SCD1 enzymatic activity) was 1.9 nM and the AUC(0-t) [2] was 96400 ng·h/mL. The Cmax [2] was 11600 ng/mL, the Tmax [2] was 30 min and the concentration at 4 h [2, 9] was 8920 ng/mL. For the same molecule, the concentration at 8 h [2, 10] was 4130 ng/mL, the concentration at 24 h [2, 11] was 437 ng/mL and the AUC(0-t) [3] was 20900 ng·h/mL. For the same molecule, the Cmax [3] was 4320 ng/mL, the concentration at 4 h [3, 9] was about 3000 ng/mL and the concentration at 8 h [3, 10] was about 900 ng/mL. The concentration at 24 h [3, 11] was about 25 ng/mL, the oral bioavailability ([4]; in vivo, po) was “good oral bioavailability; also recorded: favorable oral bioavailability; also recorded: orally bioavailable” and the tolerability ([4]; mice, rats and dogs) was “well-tolerated”. The plasma glucose [5, 12] was “does not reduce”, the plasma triglycerides [5, 12] was “does not reduce” and the liver steatosis ([5]; Western Diet 4 months, 2 mg/kg IP 10 days, H&E quantification, N=3, 2 mg/kg) was “reversal of liver steatosis; also recorded: significant reduction in liver steatohepatitis; also recorded: significantly reduced liver steatosis; also recorded: reduces liver steatosis”. For the same molecule, the “liver function plasma markers / serum chemistry (ALP and BUN levels)” value ([5]; Western Diet 4 months, 2 mg/kg IP 10 days, N=3, 2 mg/kg) was “Significant attenuation of liver damage; also recorded: improved liver function plasma markers; also recorded: significantly improves liver function tests”, the “efficacious dose for NASH” value ([5]; preliminary data) was 2 mg/kg and the “induction of liver enzymes” value ([6]; oral 50-300 mg/kg) was “does not induce liver enzymes”. For the same molecule, the tolerability ([6]; oral dose range 50-300 mg/kg) was “well tolerated”, the “chemistry, urinalysis, electrocardiograph and hematological parameters vs vehicle control” value ([7]; 14-day GLP dog study) was “no substantial differences” and the “reversibility of eye damage” value ([7]; 14-day recover dogs (2M/2F)) was “Most of the damage to eyes was reversible”. For the same molecule, the WBC ([7]; beagles, daily oral gavage 14 days) was “no dramatic changes”, the “liver enzymes or cholesterol levels” value ([7]; beagles, daily oral gavage 14 days, blood on day 15) was “no significant changes” and the MTD at 14 days ([7]; both sexes, beagle, dog, in vivo, dogs, oral, read-out: maximum tolerated dose (MTD)) was 20 mg/kg. For the same molecule, the “therapeutic window for the treatment of NASH” value ([7]; dog, in vivo) was “wide therapeutic window”, the ophthalmic observations ([7]; dogs at the maximum tolerated doses) was “inflammation of the ocular surface with occasional corneal ulceration and low intraocular pressure” and the dose limiting toxicity ([7]; dogs, 14-day repeat dosing, high doses) was “ocular inflammation”. The AUC(0-t) [8] was 90500 ng·h/mL, the Cmax [8] was 12500 ng/mL and the Tmax [8] was 60 min. The concentration at 4 h [8, 9] was 8310 ng/mL, the concentration at 8 h [8, 10] was 3200 ng/mL and the concentration at 24 h [8, 11] was 212 ng/mL. For the same molecule, the “off-target reactivity with kinases” value (known kinases) was “does not significantly react off-target with any known kinases”.
